In patent publication US20120021988A1, “METHODS FOR TREATING IMMUNE THROMBOCYTOPENIA” (priority 2007, published 2012):

Key:
FcγIIb = experiment: FcγR reverse ELISA: inhibition of PAP immune complex binding (Table 2); details: PAP/peptide mixture on FcγR coated plates; positive control 1.394
Excerpt: (§1) For this reason, a “reverse ELISA” technique has been used to assess binding of the Fc region to ligands that bind to immune complexed IgG Fc. In a reverse ELISA, the enzyme (e.g., HRP) is not covalently conjugated to the Fc portion of the secondary antibody. Rather, a preformed immune complex of peroxidase-rabbit (or mouse) anti-peroxidase IgG (“PAP” complex) is used. […] In the reverse ELISA system, an Fc CH2-CH3 cleft binding ligand (e.g., purified human C1q) was bound to microwell plates. In the absence of competitor, PAP complexes bound to the immobilized ligand and the reaction between HRP and its substrate produces a signal. This signal was reduced by polypeptides and compounds that inhibited PAP binding to the immobilized ligand.
(§2) Once the reverse ELISA protocol was established using the C1q assay, the assay was redesigned using FcγIIa, FcγIIb and FcγIII in place of C1q. Highly purified FcγIIa, FcγIIb and FcγIII (R&D Systems, Minneapolis, Minn.) were immunoadsorbed onto plastic microwells. After optimizing the FcγR reverse ELISA system, simple competitive inhibition experiments using polypeptides provided herein were conducted to investigate their ability to inhibit binding of immune complexes to purified FcγR.
(§3) Falcon microtiter plates were coated with 1:10 dilutions of highly purified FcγIIa, FcγIIb and FcγIII and incubated for 24 hours. The plates were washed and then blocked with 5×BSA blocking solution (Alpha Diagnostic International, San Antonio, Tex.) for 24 hours. PAP immune complexes were formed as described in Example 1. PAP (100 μl) were pre-incubated with 100 μl of peptide for one hour. PAP/peptide mixtures were added to the FcγR coated plates and incubated for one hour. After washing, plates were incubated with ABTS substrate (Quidel Corp.) for 15 minutes and read at 405 nm.

FcγIIa (R131 allele) = experiment: as above; details: PAP/peptide mixture on FcγR coated plates; positive control 1.599
Excerpt: as §1, §2, §3

FcγIIIa = experiment: as above; details: PAP/peptide mixture on FcγR coated plates; positive control 1.588
Excerpt: as §1, §2, §3

human C1q = experiment: Reverse ELISA: inhibition of PAP immune complex binding to C1q coated plates
Excerpt: as §1
PAP complexes were formed mixing 2 μl of rabbit anti-peroxidase (Sigma Chemicals, St. Louis, Mo.; Cat. No. P7899) with 50 μl of peroxidase (Sigma-Aldrich, Cat. No. P6782) in 1 ml distilled water. PAP (100 μl) were pre-incubated with 100 μl of peptide for one hour, 100 μl were pre-incubated with 100 μl of peptide or human C1q (Quidel Corp., San Diego, Calif.) for one hour. The C1q/PAP and peptide/PAP mixtures (100 μl) were incubated with C1q coated plates for 30 minutes. After washing, plates were incubated with ATBS (Quidel Corp.) for 15 minutes and read at 405 nm.

Ala-Pro-Pro-Asp-Cys-Ala-Trp-His-Leu-Gly-Glu-Leu-Val-Trp-Cys-Thr (APPDCAWHLGELVWCT) [SEQ ID NO:20]
OD405 FcγIIb (FcγIIb): 0.496
OD405 FcγIIa (R131 allele) (FcγIIa (R131 allele)): 0.509
OD405 FcγIIIa (FcγIIIa): 0.670
OD 405 nm (human C1q; PAP pre-incubated with peptide or C1q one hour, C1q coated plates, lower OD = more inhibition, positive control 2.355): 0.389
Inhibition of C1q binding (ranking in words) (human C1q; summary of Table 1): greatest inhibition of C1q binding
